Data as given in patent US4882349A, “Pyrrolacetic amides having antiinflammatory activity” (priority 1982, dated 1989).
Read-outs that look alike come from different tables or passages of the source.

Legend:
[1] = test system: carrageenin-induced oedema; assay: carrageenin-induced oedema test (anti-inflammatory activity); assay type: in vivo, albino male Wistar rats
Protocol: This effect was evaluated by means of an experimental model reproducing acute inflammation: for this purpose the carrageenin- induced oedema test was employed following the method described by C.
Albino male Wistar rats weighing 140-160 g were caged for 10 days at 22±1° C. and given a balanced diet and water ad libitum. Eighteen hours before the experiment the animals were randomized into groups of ten and fasted but with free access to water. Each dose was tested in three groups of rats. Each compound was given either orally, by gavage, or parenterally--intraperitoneal injection--administering as follows:
controls: 0.5% carboxymethylcellulose suspension in physiological saline, 10 ml/kg
treated: suspension of the compounds to be tested in the same vehicle and at the same volume (10 ml/kg) used for the controls at the doses specified below.
One hour after administration of the compounds and vehicle, in order to provoke the oedema for determining the protective effect of the substances under examination, each rat received, by subcutaneous injection into the plantar surface of the left paw, 0.1 ml of 1% sterile carrageenin suspension.

gastric lesions = assay type: in vivo, male Wistar rats; conditions: 4 consecutive days; for mean severity: scale 0 (no lesion) to 5 (perforations)
Protocol: Male Wistar rats weighing 180 g were randomized into groups of 10. Three doses of each compound were administered. One group received the vehicle alone (10 ml/kg b.w.). Each dose was given orally for four days consecutively and the rats were sacrificed on the fifth day for necropsy. The ulcerogenic effect was evaluated by the following scale:
(1) each haemorrhagic point at least 1 mm in diameter was scored as 1 lesion,
(2) haemorrhagic points less than 1 mm in diameter were scored in the following manner:
(c) 20 to 29=three lesions
By means of this scale it was possible to obtain the gastric damage index:
I=mean no. of lesions+mean of severity+% incidence/10

[2] = test system: brewers' yeast-induced hyperthermia; assay: antipyretic activity, brewers' yeast-induced hyperthermia; assay type: in vivo, albino male Wistar rats
Protocol: The animals were caged under the same conditions as those described in the preceding tests. Five hours following […], determined by a rectal probe connected to a YSI thermometer (73 ATP model, Yellow Springs Instrument Company) were selected for the experiment. The animals were then randomized into groups of 10 and the compounds under examination and the vehicle were administered via the oral and parenteral routes testing each dose in two groups. Body temperature was determined at one, two and three hours after administration of the substances. […]

Mice = conditions: mouse, in vivo
[3] = test system: phenyl-p-quinone-induced writhing (abdominal contractions); assay: phenylquinone-induced writhing test (analgesic activity), compound given 30 min before phenyl-p-quinone; assay type: in vivo, male Wistar rats
Protocol: Male Wistar rats weighing 110±5 g were caged for 10 days at 22±1° C. and given a balanced diet with free access to water. Twenty-four hours before the experiment the animals were randomized into groups of 10 and fasted for 14 hours but with free access to water. Each dose was tested in 3 groups of rats. Thirty minutes following administration either orally or parenterally of the products to be tested and the vehicle alone (0.5% carboxymethyl-cellulose in physiological saline) in the control animals, each rat was given 2 ml of a 5% absolute ethanol aqueous solution containing 0.36% of phenyl-p-quinone (Sigma Chemical Company) in order to provoke writhings. Fifteen minutes after administration of phenyl-p-quinone the number of contractions were counted for 20 minutes. The inhibiting effect of the compounds under examination on the abdominal contractions induced by phenyl-p-quinone was calculated by the following formula: % protection= [formula]
Table V lists the tested compounds, doses, routes of administration and their efficacy expressed as percentage of protection, taking into account that phenyl-p-quinone was administered thirty minutes after the compounds.

Rats = conditions: rat, in vivo

## Cc1ccc(C(=O)c2ccc(CC(=O)NNCC(=O)N3CCN(C)CC3)n2C)cc1 [Compound 1-o, 1-methyl-5-p-toluoylpyrrole-2-acetic acid-2 [N-(4-methyl-1-piperazinyl)acetamide] hydrazide]
[1]; 25 mg/Kg per os, 2 h
  oedema % inhibition: 37.1%
[1]; 25 mg/Kg per os, 4 h
  oedema % inhibition: 42.0%
[1]; 25 mg/Kg per os, 6 h
  oedema % inhibition: 44.0%
[1]; 25 mg/Kg per os, 24 h
  oedema % inhibition: 12.1%
[1]; 25 mg/Kg per os, 48 h
  oedema % inhibition: 0.0%
[1]; 25 mg/Kg per os, 72 h
  oedema % inhibition: 0.0%
[1]; 25 mg/Kg, Table IV (route not given), 2 h
  oedema % inhibition: 39.0%
[1]; 25 mg/Kg, Table IV (route not given), 4 h
  oedema % inhibition: 37.1%
[1]; 25 mg/Kg, Table IV (route not given), 6 h
  oedema % inhibition: 36.0%
[1]; 25 mg/Kg, Table IV (route not given), 24 h
  oedema % inhibition: 11.1%
[1]; 25 mg/Kg, Table IV (route not given), 48 h
  oedema % inhibition: 0.0%
[1]; 25 mg/Kg, Table IV (route not given), 72 h
  oedema % inhibition: 0.0%
[1]; 50 mg/Kg per os, 2 h
  oedema % inhibition: 49.2%
[1]; 50 mg/Kg per os, 4 h
  oedema % inhibition: 50.1%
[1]; 50 mg/Kg per os, 6 h
  oedema % inhibition: 50.0%
[1]; 50 mg/Kg per os, 24 h
  oedema % inhibition: 22.1%
[1]; 50 mg/Kg per os, 48 h
  oedema % inhibition: 4.5%
[1]; 50 mg/Kg per os, 72 h
  oedema % inhibition: 0.0%
[1]; 50 mg/Kg, Table IV (route not given), 2 h
  oedema % inhibition: 52.1%
[1]; 50 mg/Kg, Table IV (route not given), 4 h
  oedema % inhibition: 55.0%
[1]; 50 mg/Kg, Table IV (route not given), 6 h
  oedema % inhibition: 43.0%
[1]; 50 mg/Kg, Table IV (route not given), 24 h
  oedema % inhibition: 17.9%
[1]; 50 mg/Kg, Table IV (route not given), 48 h
  oedema % inhibition: 0.0%
[1]; 50 mg/Kg, Table IV (route not given), 72 h
  oedema % inhibition: 0.0%
[1]; 100 mg/Kg per os, 2 h
  oedema % inhibition: 70.1%
[1]; 100 mg/Kg per os, 4 h
  oedema % inhibition: 73.4%
[1]; 100 mg/Kg per os, 6 h
  oedema % inhibition: 77.5%
[1]; 100 mg/Kg per os, 24 h
  oedema % inhibition: 33.5%
[1]; 100 mg/Kg per os, 48 h
  oedema % inhibition: 8.6%
[1]; 100 mg/Kg per os, 72 h
  oedema % inhibition: 0.0%
[1]; 100 mg/Kg, Table IV (route not given), 2 h
  oedema % inhibition: 79.1%
[1]; 100 mg/Kg, Table IV (route not given), 4 h
  oedema % inhibition: 78.0%
[1]; 100 mg/Kg, Table IV (route not given), 6 h
  oedema % inhibition: 77.3%
[1]; 100 mg/Kg, Table IV (route not given), 24 h
  oedema % inhibition: 24.1%
[1]; 100 mg/Kg, Table IV (route not given), 48 h
  oedema % inhibition: 0.0%
[1]; 100 mg/Kg, Table IV (route not given), 72 h
  oedema % inhibition: 0.0%
Gastric lesions; 50 mg/Kg orally
  mean no. of lesions: 1
  mean severity: 1
Gastric lesions; 50 mg/Kg orally, I=mean no. of lesions+mean of severity+% incidence/10
  gastric damage index: 9
Gastric lesions; 100 mg/Kg orally
  mean no. of lesions: 2
  mean severity: 1
Gastric lesions; 200 mg/Kg orally
  mean no. of lesions: 2
[2]; 50 mg/Kg i.p., 1 h
  % Temperature decrease: 13.0%
[2]; 50 mg/Kg i.p., 2 h
  % Temperature decrease: 27.5%
[2]; 50 mg/Kg i.p., 3 h
  % Temperature decrease: 39.6%
[2]; 50 mg/Kg per os, 1 h
  % Temperature decrease: 12.0%
[2]; 50 mg/Kg per os, 2 h
  % Temperature decrease: 23.1%
[2]; 50 mg/Kg per os, 3 h
  % Temperature decrease: 35.2%
[2]; 75 mg/Kg i.p., 1 h
  % Temperature decrease: 18.0%
[2]; 75 mg/Kg i.p., 2 h
  % Temperature decrease: 27.0%
[2]; 75 mg/Kg i.p., 3 h
  % Temperature decrease: 49.6%
[2]; 75 mg/Kg per os, 1 h
  % Temperature decrease: 16.0%
[2]; 75 mg/Kg per os, 2 h
  % Temperature decrease: 25.2%
[2]; 75 mg/Kg per os, 3 h
  % Temperature decrease: 40.2%
[2]; 100 mg/Kg i.p., 1 h
  % Temperature decrease: 30.1%
[2]; 100 mg/Kg i.p., 2 h
  % Temperature decrease: 45.0%
[2]; 100 mg/Kg i.p., 3 h
  % Temperature decrease: 62.1%
[2]; 100 mg/Kg per os, 1 h
  % Temperature decrease: 29.1%
[2]; 100 mg/Kg per os, 2 h
  % Temperature decrease: 33.7%
[2]; 100 mg/Kg per os, 3 h
  % Temperature decrease: 59.0%
Mice; ip
  LD50: 590 mg/kg
Mice; po
  LD50: 910 mg/kg
[3]; 5 mg/Kg i.p.
  % Protection: 35.1%
[3]; 5 mg/Kg per os
  % Protection: 29.3%
[3]; 10 mg/Kg i.p.
  % Protection: 63.9%
[3]; 10 mg/Kg per os
  % Protection: 60.4%
[3]; 20 mg/Kg i.p.
  % Protection: 87.0%
[3]; 20 mg/Kg per os
  % Protection: 86.2%
Rats; ip
  LD50: 700 mg/kg
Rats; po
  LD50: 978 mg/kg
